According to patent US10363251B2, “(+)-morphinans as antagonists of toll-like receptor 9 and therapeutic uses thereof” (Mallinckrodt LLC, priority 2009, dated 2019):
“Also recorded” adds a separate entry of the source.

Legend:
[1] = system: chronic constriction injury (CCI) neuropathic pain model; experiment: Mechanical allodynia (Von Frey) in chronic constriction injury (Bennett) model, Example 3; assay type: in vivo, rat; conditions: Day 14 post-surgery, 30 and 90 min post-dosing, vs vehicle; for Mechanical allodynia (50% allodynia threshold), left (affected) paw: (+)-naloxone.HCl 66.7 mg/kg S.C., Gabapentin 100 mg/kg I.P.
From the text: Neuropathic pain affects approximately 1% of the U.S. population and is extremely difficult to manage. Usually the pain is chronic, severe, and fails to respond to traditional analgesic drugs. Fortunately, one of the most widely used animal models for neuropathic pain closely mimics the pain endured by patients. In this model, termed the chronic constriction injury (CCI) or Bennett model, four closely spaced ligatures tied loosely around the sciatic nerve of a rat cause demyelination of the nerve, resulting in spontaneous pain, such as prolonged paw elevation and licking of the ligated paw. Induced pain in the nerve-injured limb can be measured using Von Frey filaments, applied to the plantar surface of the paw to test for responses to non-noxious tactile stimulation. The onset of this heightened mechanical allodynia is quite rapid and it persists for 2-3 months.
In this example, the CCI ligation was performed on the left sciatic nerve in three groups of rats. Von Frey testing of mechanical allodynia was performed on both paws on Day 14 to determine the analgesic efficacy of the test agent. The testing was performed pre-dosing, and at 30 and 90 minutes post-dosing.
The animals were allocated to treatment groups based on their baseline Von Frey data, measured prior to surgery. The mechanical allodynia scores for each group were reviewed to ensure that the mean values and standard deviation satisfied the assumption of homogeneity. Thirty-one (31) animals were used on the study. Thirty (30) animals were initially allocated to treatment groups, and the remaining […] animals were held as spares. One spare was then used to replace an animal that died during surgery. Body weights were taken one day after arrival, prior to surgery and weekly thereafter. On Day 14, after the final behavioral testing, the animals were euthanized by carbon dioxide asphyxiation. No necropsy was performed nor tissues collected.
All surgeries were performed under aseptic conditions. Prior to surgery, the rats were sedated using inhaled Isoflurane anesthetic. The left leg was shaved and prepped. The common sciatic nerve was exposed and freed from adherent tissue at mid-thigh by separating the muscle (biceps femoris) by blunt dissection. Proximal to the sciatic nerve's trifurcation; approximately 7 mm of nerve was freed from the adhering tissue. Four ligatures, approximately 1 mm apart, were tied loosely around the nerve using 6.0 chromic catgut. Each of the sutures was tied loosely with a square knot around the sciatic nerve. A brief twitch in the muscle surrounding the exposure was an indicator of the desired degree of constriction. The site was then closed using the appropriate suture material. Post-operative care and observations were carried out until the animal recovered consciousness.
The animals underwent a series of behavioral testing for neuropathic pain assessment. A Von Frey test of mechanical allodynia was performed on both hind paws prior to surgery to achieve a baseline measurement for randomization and then following surgery on Day 14 (test article efficacy) according to Table 4.
Twice prior to surgery, the animals were acclimated to the allodynia apparatus. This habituated the rats to the testing devices to familiarize them with the apparatus so they were calm at the time of testing. […] Animals were first habituated to the testing chamber so that they were calm enough for their pain threshold to be assessed. […]

[2] = system: hepatic ischemia reperfusion (IR) injury; experiment: Hepatic ischemia reperfusion (IR) injury model; assay type: in vivo, mouse
Procedure: Anesthetized mice were subjected to 1 hour of hepatic ischemia by occluding the vasculature supplying the left and median lobes (ischemic lobes) of the liver by a microvascular clamp. Thereafter, the blood supply was resumed (reperfusion). Some animals were sacrificed after 3 hour of reperfusion, and others after 12 hours or reperfusion. The experimental group received Cmpd II-78 at a dose of 80 mg/kg given intraperitoneally 1 hour prior to starting ischemia. The compound was administered before the start of ischemia to mimic the presumed clinical timing of delivery.
Livers were sectioned, stained, examined, and scored (Suzuki scoring system) based on the presence and/or severity of sinusoidal congestion, cytoplasmic vacuolization, and necrosis of parenchymal cells, as indicated in the table below. The levels of serum alanine transaminase (ALT) were also measured using a standard assay.
IL-1β, MCP-1, and NLPR3 have pro-inflammatory and tissue damaging properties, and IL-1R antagonist (IL-1Ra) has anti-inflammatory and pro-reparative functions in the liver. MAP kinases are part of an important cytoplasmic signaling cascade that are known to be activated (i.e., phosphorylated) by IR. The levels of IL-1β, MCP-1, NLPR3, and IL-1Ra mRNA were determined in whole liver (at the 12 hour time point) using standard techniques (e.g., RT-PCR). The activation of MAP kinases was determined in whole liver lysates by Western blotting using phospho-specific antibodies (12 hour time point).

TLR9 [3] = experiment: IL-1β up-regulation in peritoneal macrophages by TLR9 agonist ODN2395; assay type: cell-based
From the text: (§1) TLR9 signalling involves activation of NF-κB and IRF downstream pathways. The (+)-morphinan inhibited both of these pathways following activation of TLR9 (but not activation of TLR4 or other receptors). The type C TLR9 agonist, ODN2395, and the TL4 agonist, LPS, both induce up-regulation of IL-1β in peritoneal macrophages via activation of NF-κB.

TLR9 [4] = experiment: IFN-β up-regulation in plasmacytoid dendritic cells by TLR9 agonist ODN2395; assay type: cell-based
From the text: as §1

[5] = system: cytoplasmic DNA receptor AIM2; experiment: IFN-β up-regulation in plasmacytoid dendritic cells by poly (dA:dT); assay type: cell-based
From the text: as §1

[6] = system: Experimental Autoimmune Encephalomyelitis (EAE); conditions: bid for 20 days; Cmpd II-98 5 mg/kg sc, others 20 mg/kg sc, Prednisolone 4.5 mg/kg ip; vs vehicle control
[7] = whole liver, 12 hours of reperfusion

| SMILES | Mechanical allodynia (50% allodynia threshold), left (affected) paw ([1]; listed as (+)-naloxone) | Mechanical allodynia (50% allodynia threshold), left (affected) paw ([1]; listed as (+)-naloxone.HCl) | Mechanical allodynia (50% allodynia threshold), right (unaffected) paw [1] | Histological Suzuki score (hepatic IR injury) ([2]; 80 mg/kg ip 1 hour prior to ischemia, 1 h ischemia, 3 and 12 hours of reperfusion) | IR-induced serum ALT levels ([2]; 80 mg/kg ip, 3 and 12 hours of reperfusion) | Liver injury (serum ALT) ([2]; 80 mg/kg ip, 3 hour time point) | Liver injury (serum ALT) ([2]; 80 mg/kg ip, 12 hour time point) | IR-induced cleavage and activation of TLR9 (western blotting) ([2]; liver) | IR-induced activation of MAP kinases (western blotting) ([2]; whole liver lysates, 12 hour time point) | Anti-inflammatory molecule IL-1Ra mRNA relative to β-actin [2, 7] | IR-induced pro-inflammatory cytokines (IL-1β, MCP-1, NLPR3 mRNA relative to β-actin) [2, 7] | IL-1β mRNA up-regulation (NF-κB pathway) (TLR9 [3]) | IFN-β mRNA up-regulation (IRF pathway) (TLR9 [4]) | IFN-β up-regulation [5] | EAE clinical scores [6] |
| --- | --- | --- | --- | --- | --- | --- | --- | --- | --- | --- | --- | --- | --- | --- | --- |
| C=CCN1CC[C@]23c4c5ccc(O)c4O[C@H]2C(=O)CC[C@]3(O)[C@H]1C5 [(+)-Naloxone, (+)-naloxone] | effective at significantly reducing the allodynia | effective analgesic for reversing neuropathic pain | no significant group differences | – | – | – | – | – | – | – | – | – | – | – | – |
| CN[C@@H]1CC[C@]2(O)[C@@H]3Cc4ccc(O)c5c4[C@]2(CCN3CC2CC2)[C@@H]1O5 [II-78] | – | – | – | reduced hepatic ischemic reperfusion (IR) injury | reduced IR-induced serum alanine transaminase (ALT) levels | trend towards reduction | significantly reduced liver injury | reduction of IR-induced cleavage and activation of LTR9 | reduction of IR-induced activation of MAP kinases | increased an anti-inflammatory molecule | reduced IR-induced pro-inflammatory cytokines | response was inhibited; also recorded: reduced both NFκB- and IRF-dependent pathways downstream of TLR9 | this activation was inhibited; also recorded: reduced both NFκB- and IRF-dependent pathways downstream of TLR9 | this activation was not blocked | did not improve EAE |
